Measured values: ChEMBL document CHEMBL4706583, “2-Anilinoquinoline based arylamides as broad spectrum anticancer agents with B-RAF/C-RAF kinase inhibitory effects: Design, synthesis, in vitro cell-based and oncogenic kinase assessments” (Eur J Med Chem, 2020)
pIC50: −log10 of the molar value. Active and inactive are the calls of the source. No cut-off for these calls is given here.

How the values were obtained:
K562 = assay: Growth inhibition of human K562 cells at 10 uM measured after 48 hrs by SRB assay relative to control; assay type: functional; details: read-out: GI
HOP-92 = assay: Growth inhibition of human HOP-92 cells at 10 uM measured after 48 hrs by SRB assay relative to control; assay type: functional; details: read-out: GI
HCT-116 = assay: Growth inhibition of human HCT-116 cells at 10 uM measured after 48 hrs by SRB assay relative to control; assay type: functional; details: read-out: GI
MOLT-4 = assay: Growth inhibition of human MOLT-4 cells at 10 uM measured after 48 hrs by SRB assay relative to control; assay type: functional; details: read-out: GI
RPMI-8226 = assay: Growth inhibition of human RPMI-8226 cells at 10 uM measured after 48 hrs by SRB assay relative to control; assay type: functional; details: read-out: GI
UO-31 = assay: Growth inhibition of human UO-31 cells at 10 uM measured after 48 hrs by SRB assay relative to control; assay type: functional; details: read-out: GI
A549 = assay: Growth inhibition of human A549 cells at 10 uM measured after 48 hrs by SRB assay relative to control; assay type: functional; details: read-out: GI
SR = assay: Growth inhibition of human SR cells at 10 uM measured after 48 hrs by SRB assay relative to control; assay type: functional; details: read-out: GI
HT-29 = assay: Growth inhibition of human HT-29 cells at 10 uM measured after 48 hrs by SRB assay relative to control; assay type: functional; details: read-out: GI
CCRF-CEM = assay: Growth inhibition of human CCRF-CEM cells at 10 uM measured after 48 hrs by SRB assay relative to control; assay type: functional; details: read-out: GI
[1] = system: Panel NCI-60 (60 carcinoma cell lines); assay: Growth inhibition of human Panel NCI-60 (60 carcinoma cell lines) cells at 10 uM measured after 48 hrs by SRB assay relative to control; assay type: functional; details: read-out: GI
PC-3 = assay: Growth inhibition of human PC-3 cells at 10 uM measured after 48 hrs by SRB assay relative to control; assay type: functional; details: read-out: GI
786-0 = assay: Growth inhibition of human 786-0 cells at 10 uM measured after 48 hrs by SRB assay relative to control; assay type: functional; details: read-out: GI
A498 = assay: Growth inhibition of human A498 cells at 10 uM measured after 48 hrs by SRB assay relative to control; assay type: functional; details: read-out: GI
NCI-H522 = assay: Growth inhibition of human NCI-H522 cells at 10 uM measured after 48 hrs by SRB assay relative to control; assay type: functional; details: read-out: GI
T47D = assay: Growth inhibition of human T47D cells at 10 uM measured after 48 hrs by SRB assay relative to control; assay type: functional; details: read-out: GI
[2] = target: RAF proto-oncogene serine/threonine-protein kinase (Homo sapiens, UniProt P04049); assay: Inhibition of human CRAF using MEK1 (K97R) as substrate in presence of [gamma-33P]ATP by scintillation counting method
Homo sapiens = organism: Homo sapiens; assay: Selectivity ratio of IC50 for inhibition of human BRAF V600E mutant to IC50 for inhibition of human CRAF
[3] = target: Serine/threonine-protein kinase B-raf (Homo sapiens, UniProt P15056); assay: Inhibition of human BRAF using MEK1 (K97R) as substrate in presence of [gamma-33P]ATP by scintillation counting method
[4] = target: Serine/threonine-protein kinase B-raf (Homo sapiens, UniProt P15056, V600E); assay: Inhibition of human BRAF V600E mutant using MEK1 (K97R) as substrate in presence of [gamma-33P]ATP by scintillation counting method
Sus scrofa = organism: Sus scrofa; assay: Induction of porcine brain tubulin polymerization at 10 uM measured at 30 secs interval for 60 mins by fluorescence assay; assay type: tissue-based

Sequence of Serine/threonine-protein kinase B-raf (Homo sapiens, UniProt P15056, V600E) (P15056 2-766 V600E limits assumed): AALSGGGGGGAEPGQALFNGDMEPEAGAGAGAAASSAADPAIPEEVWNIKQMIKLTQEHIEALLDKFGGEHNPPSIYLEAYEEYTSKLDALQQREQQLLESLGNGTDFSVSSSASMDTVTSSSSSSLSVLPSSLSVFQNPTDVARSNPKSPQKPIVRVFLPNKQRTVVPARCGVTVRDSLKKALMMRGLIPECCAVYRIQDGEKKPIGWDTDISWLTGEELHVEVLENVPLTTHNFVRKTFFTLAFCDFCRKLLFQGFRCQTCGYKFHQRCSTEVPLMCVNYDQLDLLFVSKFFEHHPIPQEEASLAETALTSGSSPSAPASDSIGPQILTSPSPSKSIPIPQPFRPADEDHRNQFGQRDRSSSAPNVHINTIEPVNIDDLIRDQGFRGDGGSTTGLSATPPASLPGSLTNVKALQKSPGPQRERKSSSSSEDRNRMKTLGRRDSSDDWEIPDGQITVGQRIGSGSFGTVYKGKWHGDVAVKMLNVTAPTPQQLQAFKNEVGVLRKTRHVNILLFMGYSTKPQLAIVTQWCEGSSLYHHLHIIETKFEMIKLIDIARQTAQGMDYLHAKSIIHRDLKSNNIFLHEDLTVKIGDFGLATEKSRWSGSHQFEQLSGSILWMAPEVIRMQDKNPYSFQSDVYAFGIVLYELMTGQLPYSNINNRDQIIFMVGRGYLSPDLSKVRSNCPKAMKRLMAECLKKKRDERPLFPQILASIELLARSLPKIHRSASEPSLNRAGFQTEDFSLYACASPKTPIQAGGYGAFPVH
Sequence of RAF proto-oncogene serine/threonine-protein kinase (P04049 whole entry): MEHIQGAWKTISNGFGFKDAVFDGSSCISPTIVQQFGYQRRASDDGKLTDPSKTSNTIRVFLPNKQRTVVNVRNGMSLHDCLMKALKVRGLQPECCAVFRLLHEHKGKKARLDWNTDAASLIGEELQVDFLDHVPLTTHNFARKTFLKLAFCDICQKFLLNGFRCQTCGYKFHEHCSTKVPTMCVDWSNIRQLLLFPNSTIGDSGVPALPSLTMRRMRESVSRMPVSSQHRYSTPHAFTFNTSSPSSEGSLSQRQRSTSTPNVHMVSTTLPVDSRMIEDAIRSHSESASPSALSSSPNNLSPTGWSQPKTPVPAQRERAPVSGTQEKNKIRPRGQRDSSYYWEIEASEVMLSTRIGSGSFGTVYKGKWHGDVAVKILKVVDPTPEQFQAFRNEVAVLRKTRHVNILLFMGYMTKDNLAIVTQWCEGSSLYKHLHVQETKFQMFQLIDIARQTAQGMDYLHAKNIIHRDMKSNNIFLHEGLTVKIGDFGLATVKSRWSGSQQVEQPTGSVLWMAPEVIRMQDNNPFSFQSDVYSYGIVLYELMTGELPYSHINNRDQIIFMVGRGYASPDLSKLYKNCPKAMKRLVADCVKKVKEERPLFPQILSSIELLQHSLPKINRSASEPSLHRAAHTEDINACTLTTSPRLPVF
Sequence of Serine/threonine-protein kinase B-raf (Homo sapiens, UniProt P15056) (P15056 whole entry): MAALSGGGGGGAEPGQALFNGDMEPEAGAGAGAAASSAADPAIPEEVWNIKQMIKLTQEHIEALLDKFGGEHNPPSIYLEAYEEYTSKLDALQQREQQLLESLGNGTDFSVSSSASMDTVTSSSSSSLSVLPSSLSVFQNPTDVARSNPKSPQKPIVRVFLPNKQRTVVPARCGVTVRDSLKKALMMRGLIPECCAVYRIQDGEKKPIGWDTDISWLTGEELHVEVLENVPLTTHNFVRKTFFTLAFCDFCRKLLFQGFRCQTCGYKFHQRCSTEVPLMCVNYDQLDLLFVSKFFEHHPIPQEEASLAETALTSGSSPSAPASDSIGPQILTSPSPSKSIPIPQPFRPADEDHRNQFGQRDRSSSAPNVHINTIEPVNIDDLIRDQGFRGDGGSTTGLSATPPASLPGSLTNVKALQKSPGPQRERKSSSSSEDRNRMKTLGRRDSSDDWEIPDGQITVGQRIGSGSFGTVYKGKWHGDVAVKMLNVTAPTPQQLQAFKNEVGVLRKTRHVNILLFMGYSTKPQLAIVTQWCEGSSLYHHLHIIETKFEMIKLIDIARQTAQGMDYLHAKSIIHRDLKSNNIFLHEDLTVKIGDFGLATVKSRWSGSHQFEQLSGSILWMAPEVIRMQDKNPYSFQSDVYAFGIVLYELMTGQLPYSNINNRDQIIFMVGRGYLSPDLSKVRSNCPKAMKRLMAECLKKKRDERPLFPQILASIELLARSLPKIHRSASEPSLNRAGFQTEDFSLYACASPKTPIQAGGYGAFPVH

| SMILES | inhibition of growth at 10 µM (K562) [%] | inhibition of growth at 10 µM (HOP-92) [%] | inhibition of growth at 10 µM (HCT-116) [%] | inhibition of growth at 10 µM (MOLT-4) [%] | inhibition of growth at 10 µM (RPMI-8226) [%] | inhibition of growth at 10 µM (UO-31) [%] | inhibition of growth at 10 µM (A549) [%] | inhibition of growth at 10 µM (SR) [%] | inhibition of growth at 10 µM (HT-29) [%] | inhibition of growth at 10 µM (CCRF-CEM) [%] | inhibition of growth at 10 µM [1] [%] | inhibition of growth at 10 µM (PC-3) [%] | inhibition of growth at 10 µM (786-0) [%] | inhibition of growth at 10 µM (A498) [%] | inhibition of growth at 10 µM (NCI-H522) [%] | inhibition of growth at 10 µM (T47D) [%] | pIC50 [2] | pIC50 [3] | pIC50 [4] | other results |
| --- | --- | --- | --- | --- | --- | --- | --- | --- | --- | --- | --- | --- | --- | --- | --- | --- | --- | --- | --- | --- |
| COc1cccc2nc(Nc3ccc(NC(=O)c4ccc(Cl)c(C(F)(F)F)c4)cc3)ccc12 | 47.5 | 32 | < 20 | 27.6 | < 20 | < 20 | < 20 | < 20 | 21.8 | < 20 | 6.32 | < 20 | < 20 | 22.6 | < 20 | < 20 |  |  |  |  |
| COc1cccc2nc(Nc3ccc(NC(=O)c4ccc5c(c4)OCCO5)cc3)ccc12 | < 20 | < 20 | < 20 | < 20 | < 20 | < 20 | < 20 | < 20 | < 20 | < 20 | -1.17 | < 20 | < 20 | < 20 | < 20 | < 20 |  |  |  |  |
| COc1cccc2nc(Nc3cccc(NC(=O)c4ccc5c(c4)OCCO5)c3)ccc12 | 67.8 | < 20 | 32.5 | 75.2 | 39.7 | < 20 | < 20 | 56.7 | < 20 | 33.4 | 17.8 | 32.1 | 48.3 | 26.2 | < 20 | 46 |  |  |  |  |
| COc1cccc2nc(Nc3cccc(NC(=O)c4ccc5ncccc5c4)c3)ccc12 | 61.1 | 48.5 | 53.3 | 64.2 | 94.6 | 22.9 | 20.9 | 55.9 | 42.4 | 36.9 | 28.6 | 56.2 | 51.4 | < 20 | < 20 | 58 |  |  |  |  |
| COc1cccc2nc(Nc3cccc(NC(=O)c4cc(N5CCOCC5)cc(C(F)(F)F)c4)c3)ccc12 |  |  |  |  |  |  |  |  |  |  | 38.3 |  |  |  |  |  | 6.21 | 5.23 | 5.83 | Ratio IC50 (Homo sapiens): 2 |
| COc1cccc2nc(Nc3cccc(NC(=O)c4ccc(Cl)c(C(F)(F)F)c4)c3)ccc12 | 56.8 | 21.5 | < 20 | 54.8 | 31.8 | 37.6 | < 20 | 48 | < 20 | 32.9 | 12.9 | 50.3 | < 20 | 27.5 | 27.4 | 21.3 |  |  |  |  |
| COc1cccc2nc(Nc3cccc(NC(=O)c4ccc(N5CCOCC5)c(C(F)(F)F)c4)c3)ccc12 |  |  |  |  |  |  |  |  | 87.2 |  | 59 |  |  |  |  |  | 5.84 | 4.39 | 5.34 | Ratio IC50 (Homo sapiens): 2 |
| COc1cccc2nc(Nc3cccc(NC(=O)c4cc(C(F)(F)F)cc(C(F)(F)F)c4)c3)ccc12 | 77.3 | 67.5 | < 20 | 65.2 | 41.9 | 28.2 | 48 | 57.4 | < 20 | 34.4 | 13.6 | 62.7 | < 20 | 28.6 | 23.5 | < 20 | 5.32 | < 4.00 | 5.02 |  |
| COc1cccc2nc(Nc3cccc(NC(=O)c4cccc(Cl)n4)c3)ccc12 | < 20 | < 20 | < 20 | 23.3 | < 20 | < 20 | < 20 | < 20 | < 20 | < 20 | 4.88 | 20.6 | < 20 | 32.4 | < 20 | < 20 |  |  |  |  |
| COc1cccc2nc(Nc3cccc(NC(=O)c4cc(-n5cnc(C)c5)cc(C(F)(F)F)c4)c3)ccc12 |  |  |  |  |  |  |  |  |  |  | 32.6 |  |  |  |  |  | 6.38 | 5.03 | 5.96 | Ratio IC50 (Homo sapiens): 2 |
| CC(=O)O[C@H]1C(=O)[C@@]2(C)[C@H]([C@H](OC(=O)c3ccccc3)[C@]3(O)C[C@H](OC(=O)[C@H](O)[C@@H](NC(=O)c4ccccc4)c4ccccc4)C(C)=C1C3(C)C)[C@]1(OC(C)=O)CO[C@@H]1C[C@@H]2O |  |  |  |  |  |  |  |  |  |  |  |  |  |  |  |  |  |  |  | Activity (Sus scrofa): Active |
